From ChEMBL document CHEMBL3576782, “Bacillusin A, an Antibacterial Macrodiolide from Bacillus amyloliquefaciens AP183” (J Nat Prod, 2015)
≈ marks a conversion by molar mass, not a printed value. Calls of active or inactive are those of the source. No cut-off for these calls is given here.

Columns and labels:
Staphylococcus aureus [1] = assay: Antibacterial activity against methicillin-resistant Staphylococcus aureus ATCC 33591 assessed as growth inhibition using fresh sample in DMSO at 100 ug/ml by CLSI method; type: functional, organism-based
Staphylococcus aureus [2] = assay: Bactericidal activity against methicillin-resistant Staphylococcus aureus ATCC 33591 using fresh sample in DMSO at 100 ug/ml after 24 to 48 hrs by CLSI method; type: functional, organism-based
Staphylococcus aureus [3] = assay: Bactericidal activity against Staphylococcus aureus ATCC 29213 using fresh sample in DMSO after 24 to 48 hrs by CLSI method; type: functional
Staphylococcus aureus [4] = assay: Antibacterial activity against methicillin-resistant Staphylococcus aureus EAMC30 assessed as growth inhibition using fresh sample in DMSO by CLSI method; type: functional, organism-based
Enterococcus faecalis [5] = assay: Bactericidal activity against Enterococcus faecalis ATCC 29212 using fresh sample in DMSO after 24 to 48 hrs by CLSI method; type: functional
Enterococcus faecalis [6] = assay: Bactericidal activity against Enterococcus faecalis ATCC 51299 using fresh sample in DMSO after 24 to 48 hrs by CLSI method; type: functional
Enterococcus faecalis [7] = assay: Antibacterial activity against Enterococcus faecalis ATCC 51299 assessed as growth inhibition using fresh sample in DMSO by CLSI method; type: functional, organism-based
Staphylococcus aureus [8] = assay: Antibacterial activity against Staphylococcus aureus ATCC 29213 assessed as growth inhibition using fresh sample in DMSO by CLSI method; type: functional, organism-based
Enterococcus faecalis [9] = assay: Antibacterial activity against Enterococcus faecalis ATCC 29212 assessed as growth inhibition using fresh sample in DMSO by CLSI method; type: functional, organism-based
Staphylococcus aureus [10] = assay: Antibacterial activity against methicillin-resistant Staphylococcus aureus ATCC 33591 assessed as growth inhibition using fresh sample in DMSO by CLSI method; type: functional, organism-based
Staphylococcus aureus [11] = assay: Bactericidal activity against methicillin-resistant Staphylococcus aureus ATCC 33591 using fresh sample in DMSO after 24 to 48 hrs by CLSI method; type: functional
Candida albicans = assay: Antifungal activity against Candida albicans ATCC 90028 at 20 ug/ml by CLSI method; type: functional, organism-based
Staphylococcus aureus [12] = assay: Bactericidal activity against methicillin-resistant Staphylococcus aureus EAMC30 using fresh sample in DMSO after 24 to 48 hrs by CLSI method; type: functional
[13] = Chemical stability in acetonitrile after 1 week by LC-MS analysis; type: physicochemical; conditions: 168 h
Enterococcus faecium [14] = assay: Bactericidal activity against vancomycin-resistant Enterococcus faecium ATCC 700221 using fresh sample in DMSO at 20 ug/ml after 24 to 48 hrs by CLSI method; type: functional, organism-based
Enterococcus faecium [15] = assay: Antibacterial activity against vancomycin-resistant Enterococcus faecium ATCC 700221 assessed as growth inhibition using fresh sample in DMSO by CLSI method; type: functional, organism-based
Enterococcus faecalis [16] = assay: Bactericidal activity against Enterococcus faecalis ATCC 51299 using fresh sample in DMSO at 100 ug/ml after 24 to 48 hrs by CLSI method; type: functional, organism-based

In the case of `COc1cccc(OC)c1C(=O)N[C@@H]1C(=O)N2[C@@H]1SC(C)(C)[C@@H]2C(=O)O` [METHICILLIN], the “growth inhibition (GI)” value (Staphylococcus aureus [1]) is reported as “inactive”, the Activity (Staphylococcus aureus [2]) is reported as “inactive” and the MBC (Staphylococcus aureus [3]) is reported as 12.5 µg/mL (≈ 32.9 µM). For the same molecule, the IC50 (Staphylococcus aureus [4]) was 10.1 µg/mL (≈ 26.5 µM), the MIC (Staphylococcus aureus [4]) was 50 µg/mL (≈ 131 µM) and the MBC (Enterococcus faecalis [5]) was 50 µg/mL (≈ 131 µM). For the same molecule, the MBC (Enterococcus faecalis [6]) was 50 µg/mL (≈ 131 µM), the IC50 (Enterococcus faecalis [7]) was 14.2 µg/mL (≈ 37.3 µM) and the MIC (Enterococcus faecalis [7]) was 50 µg/mL (≈ 131 µM). The MIC (Staphylococcus aureus [8]) was 3.1 µg/mL (≈ 8.15 µM), the IC50 (Enterococcus faecalis [9]) was 15.3 µg/mL (≈ 40.2 µM) and the MIC (Enterococcus faecalis [9]) was 25 µg/mL (≈ 65.7 µM).
In the case of `COc1cc(O)cc2c1C(=O)OC(CC(C)O)CC(O)C/C=C/C(O)CC(O)CC(O)C/C(C)=C/C=C/C=C/C=C/C=C/c1cc(O)cc(OC)c1C(=O)OC(CC(C)O)CC(O)C/C=C/C(O)CC(O)CC(O)C/C(C)=C/C=C/C=C/C=C/C=C/2` (configuration not stated), the IC50 (Staphylococcus aureus [10]) is reported as 0.04 µg/mL (≈ 0.0334 µM), the MIC (Staphylococcus aureus [10]) is reported as 1.2 µg/mL (≈ 1 µM) and the MBC (Staphylococcus aureus [3]) is reported as 2.5 µg/mL (≈ 2.09 µM). For the same molecule, the MBC (Staphylococcus aureus [11]) was 1.2 µg/mL (≈ 1 µM), the Activity (Candida albicans) was “inactive” and the MBC (Staphylococcus aureus [12]) was 0.6 µg/mL (≈ 0.501 µM). For the same molecule, the IC50 (Staphylococcus aureus [4]) was < 0.02 µg/mL, the MIC (Staphylococcus aureus [4]) was 0.6 µg/mL (≈ 0.501 µM) and the Stability [13] was “Unstable”. The MBC (Enterococcus faecalis [5]) was 2.5 µg/mL (≈ 2.09 µM), the MBC (Enterococcus faecalis [6]) was 1.2 µg/mL (≈ 1 µM) and the IC50 (Enterococcus faecalis [7]) was 0.2 µg/mL (≈ 0.167 µM). The MIC (Enterococcus faecalis [7]) was 0.6 µg/mL (≈ 0.501 µM), the Activity (Enterococcus faecium [14]) was “inactive” and the IC50 (Staphylococcus aureus [8]) was 0.04 µg/mL (≈ 0.0334 µM). The MIC (Staphylococcus aureus [8]) was 1.2 µg/mL (≈ 1 µM), the IC50 (Enterococcus faecium [15]) was 0.1 µg/mL (≈ 0.0835 µM) and the MIC (Enterococcus faecium [15]) was 0.6 µg/mL (≈ 0.501 µM). It also gave an IC50 (Enterococcus faecalis [9]) of 0.2 µg/mL (≈ 0.167 µM) and an MIC (Enterococcus faecalis [9]) of 0.6 µg/mL (≈ 0.501 µM).
With `CN[C@H](CC(C)C)C(=O)N[C@H]1C(=O)N[C@@H](CC(N)=O)C(=O)N[C@H]2C(=O)N[C@H]3C(=O)N[C@H](C(=O)N[C@H](C(=O)O)c4cc(O)cc(O)c4-c4cc3ccc4O)[C@H](O)c3ccc(c(Cl)c3)Oc3cc2cc(c3O[C@@H]2O[C@H](CO)[C@@H](O)[C@H](O)[C@H]2O[C@H]2C[C@](C)(N)[C@H](O)[C@H](C)O2)Oc2ccc(cc2Cl)[C@H]1O` [VANCOMYCIN] the IC50 (Staphylococcus aureus [10]) was 0.8 µg/mL (≈ 0.552 µM), the MIC (Staphylococcus aureus [10]) was 1.6 µg/mL (≈ 1.1 µM) and the Activity (Enterococcus faecalis [16]) was “inactive”. The MBC (Staphylococcus aureus [3]) was 50 µg/mL (≈ 34.5 µM), the MBC (Staphylococcus aureus [11]) was 1.6 µg/mL (≈ 1.1 µM) and the MBC (Staphylococcus aureus [12]) was 0.4 µg/mL (≈ 0.276 µM). The IC50 (Staphylococcus aureus [4]) was 0.2 µg/mL (≈ 0.138 µM), the MIC (Staphylococcus aureus [4]) was 0.4 µg/mL (≈ 0.276 µM) and the MBC (Enterococcus faecalis [5]) was 50 µg/mL (≈ 34.5 µM). The IC50 (Enterococcus faecalis [7]) was 3.4 µg/mL (≈ 2.35 µM), the MIC (Enterococcus faecalis [7]) was 6.2 µg/mL (≈ 4.28 µM) and the IC50 (Staphylococcus aureus [8]) was 0.7 µg/mL (≈ 0.483 µM). The MIC (Staphylococcus aureus [8]) was 1.6 µg/mL (≈ 1.1 µM), the IC50 (Enterococcus faecalis [9]) was 1 µg/mL (≈ 0.69 µM) and the MIC (Enterococcus faecalis [9]) was 1.6 µg/mL (≈ 1.1 µM).
